These results are taken from patent publication US11530246B2, “Regulated synthetic gene expression systems” (TRUSTEES OF BOSTON UNIVERSITY, priority 2019, dated 2022).

“Also recorded” adds a separate entry of the source.

Data set [1] deals with ZF-responsive promoter. The data set can be described thus: 4OHT-inducible transcriptional activation of a fluorescent protein using ERT2 domain, Jurkat. The format is cell-based, human. The text has this:
ERT2 nuclear translocation domain, which is responsive to a small molecule (4-hydroxytamoxifen=4OHT), can be used to regulate a synTF as described herein (see e.g., Indra et al. Nucleic Acids Res (1999)). The human estrogen receptor (ER) contains a ligand responsive domain that, when fused to other protein domains, can yield ligand-dependent control over activity. The domain naturally associates with cytoplasmic factors in the cell in the absence of cognate ligands, effectively sequestering itself in the cytoplasm. Binding of cognate ligands, such as estrogen or other steroid hormone derivatives, cause a conformational change to the receptor that allow dissociation from the cytoplasmic complexes and expose a nuclear localization signal, permitting translocation into the nucleus.
Subsequently, the administration of 4OHT can allow conditional nuclear translocation of the synTF, allowing synTF functionality in the cellular nucleus (see e.g., FIG. 4).
Output fluorescence was measured as a function of several different 4OHT treatment concentrations as indicated (dose response; see e.g., FIG. 8A).

Data set [2] deals with ZF-responsive promoter. The data set can be described thus: Small molecule inducible synTF activation of fluorescent reporter in HEK293 and Jurkat cell lines. Particulars: both HEK293 and Jurkat cell lines; compared to untreated. The format is cell-based, human. The text has this:
Output fluorescence as a function of several different small molecule (e.g., ABA, 4OHT, or grazoprevir) treatment concentrations is also indicated here.
Inducible synTFs were first characterized using GFP (or another detectable marker such as mCherry) as the reporter. The whole system was introduced into Jurkat T cells via lentiviral transduction with multiplicity of infection of 25 to ensure high efficiency, quantifying viral copy number (VCN) with qPCR. To characterize the inducible synTF controllers, cells at 5×10^4 cells each in 96-well plates were inoculated with lentivirus, and eight different drug concentrations were added spanning three orders of magnitude (e.g., GZV 0-10 μM, 4OHT 0-1 μM), and GFP expression levels can be quantified with flow cytometry (see e.g., FIG. 10A-10D). Gene expression levels can be normalized to VCN. From these dose-responses, the dynamic range and threshold of activation can be defined. Since the single vector design can lack a selection marker, transduction efficiency was assumed to be equal to the percentage of GFP positive cells after induction by 4OHT or GZV.
Tunable gene activation was achieved using small molecule inducible synTFs. Inducibility profiles were determined for each of the three inducible synTF activators, in both HEK293 and Jurkat cell lines. The reporter expression was evaluated across time and varying drug concentrations. Day 4 represented the highest levels of expression that were assayed, indicating strong inducible expression in drug-treated lines relative to untreated cell lines (see e.g., FIG. 10A-10D).

The test system of data set [3] is ZF-responsive promoter. Nature of the data set: Inducible synthetic transcriptional repression of a fluorescent protein, HEK293. It counts as cell-based, human. Particulars: compared to untreated. How it is done: Tunable gene silencing can also be achieved using small molecule inducible synTFs. Inducible synTFs were engineered that were capable of repressing gene expression. The responsive promoter was modified to constitutively express a fluorescent output. The p65 activation domain was replaced with a KRAB repression domain (human-derived silencer), and the same ZF-drug pairs were utilized as the synTF activators. Inducibility profiles were determined for each of the three inducible synTF repressors in HEK cell lines, and there was strong silencing of reporter expression over time in drug-treated lines relative to untreated cell lines (see e.g., FIG. 11A-11B, 12A-12C).

Data set [4] has as its system ZF-responsive promoter. Nature of the data set: Dual-drug regulated IL4 and CD19-CAR expression in CD4+ primary human T cells. It counts as cell-based. From the text:
(see e.g., FIG. 14A-14B).

Data set [5] deals with ZF-responsive promoter. Nature of the data set: Activation and tunable deactivation of a fluorescent protein using ERT2 and SMASh domains, Jurkat. It counts as cell-based, human. How it is done:
Inducible synthetic transcriptional activation and tunable deactivation of a fluorescent protein in human cell lines using ERT2 and SMASh domains: Three Jurkat T cell lines were tested: (1) ZF-p65-ERT2 (no SMASh, see e.g., FIG. 4); (2) ZF-p65-ERT2-SMASh (C-terminal SMASh); and (3) SMASh-ZF-p65-ERT2 (N-terminal SMASh) (see e.g., FIG. 16A). […] Absence of a SMASh-responsive small molecule (grazoprevir) for 12 days led to equivalent, slow deactivation of the reporter to baseline levels. […] This rapid deactivation of the reporter was compared to the condition lacking the SMASh domain, which led to equivalent slow deactivation as in the “absence of grazoprevir” condition (see e.g., FIG. 16B).

Data set [6] deals with ZF-responsive promoter. Nature of the data set: Tunable activation of a fluorescent protein by co-administered 4OHT and GZV, ERT2 and SMASh domains, Jurkat. It counts as cell-based, human. As to conditions: co-administration of varying 4OHT and GZV for 4 days. The protocol:
Tunable synthetic transcriptional activation of a fluorescent protein in human cell lines using ERT2 and SMASh domains: Two Jurkat T cell lines were tested: (1) ZF-p65-ERT2-SMASh (C-terminal SMASh) and (2) SMASh-ZF-p65-ERT2 (N-terminal SMASh).

The test system of data set [7] is ZF-responsive promoter. The data set can be described thus: Inducible repression of a fluorescent protein using ERT2 and SMASh domains, Jurkat. It counts as cell-based, human. Particulars: 6 days; KRAB-, HP1a-, EED-ZF-ERT2-SMASh lines. The protocol:
Inducible synthetic transcriptional repression of a fluorescent protein in human cell lines using […] domains: Three Jurkat T cell lines were tested: (1) KRAB-[…] (3) […]. […] Absence of a SMASh-responsive small molecule (GZV) in the negative control led to significant “leaky” repression in the absence of 4OHT (see e.g., FIG. 18).

In data set [8] the test system is ZF-responsive promoter. Nature of the data set: ABA-inducible transcriptional activation of a fluorescent protein using ABI/PYL domains, Jurkat. The format is cell-based, human. From the text:
ABI/PYL induced proximity domains that are responsive to a small molecule (abscisic acid=ABA) can be used to regulate a synTF as described herein (see e.g., Liang et al. Sci Signal, 2011). The ABA-insensitive 1 (ABI1) and PYR1-like (PYL) domains originating form Arabidopsis thaliana have complementary surfaces that can conditionally interact when coordinated by the small molecule abscisic acid (ABA). ABA is a plant hormone that is naturally present at low levels within the human diet, and is subsequently presumed to be a safe small molecule for human administration.
Subsequently, the administration of ABA can allow conditional dimerization between the ABI1 and PYL subunits, allowing the ZF and effector domains to remain locally coupled and retaining synTF functionality (see e.g., FIG. 3).
Output fluorescence was measured as a function of several different ABA treatment concentrations as indicated (dose response; see e.g., FIG. 7A).

The subject of data set [9] is ZF-responsive promoter. Nature of the data set: Grazoprevir-inducible transcriptional activation of a fluorescent protein using NS3, Jurkat. It counts as cell-based, human. From the text: Non-structural protein 3 (NS3) domain can be used for small molecule regulated control over synTF activity (see e.g., Lin et al. PNAS (2008)). The non-structural protein 3 (NS3) is a serine protease originating from the hepatitis C virus and is naturally capable of self-excision from expressed proteins.
Subsequently, the administration of one of these small molecules—e.g. grazoprevir—can prevent self-excision of NS3 from the fusion protein, allowing the ZF and effector domains to remain locally coupled and retaining synTF functionality.
In the presence of a small molecule, the NS3 protease activity is inhibited and the fusion protein complex is stabilized, permitting the transcription factor to regulate expression of an output gene from a responsive promoter (see e.g., FIG. 5A-5C).
Output fluorescence was measured as a function of several different grazoprevir treatment concentrations as indicated (dose response) (see e.g., FIG. 9A).

Data set [10] concerns ZF-responsive promoter. Nature of the data set: Grazoprevir-inducible transcriptional repression of a fluorescent protein, HEK293 and Jurkat. It counts as cell-based, human. Particulars: compared to untreated.
The test system of data set [11] is ZF-responsive promoter. Nature of the data set: Inducible activation of CD19-CAR in CD4+ primary human T cells. It counts as cell-based. The text has this: (§1) Output fluorescence as a function of several different grazoprevir treatment concentrations is also indicated here. […] Cytokine production as a function of several different grazoprevir treatment concentrations is also indicated here (see e.g., FIG. 13A-13D).
(§2) Inducible synTFs can regulate […] expression in primary cells. The grazoprevir-inducible synTF was used to control expression of a CD19-CAR in primary CD4+ cells. […] Such results highlight that the ability to reliably control expression of outputs from therapeutic, thus controlling their functionalities in increasingly complex settings (see e.g., FIG. 13A-13D).

In data set [12] the test system is CD19 antigen-presenting target cells. The data set can be described thus: Co-culture of induced CD19-CAR primary T cells with CD19 antigen-presenting target cells, cytokine production. The format is cell-based, human.
Text: as §1, §2

Data set [13] has as its system ZF-responsive promoter. The data set can be described thus: Inducible activation of IL10 in Jurkat T cell lines, double or single lentiviral vector. The format is cell-based, human. Particulars: 1 uM GZV for 2 days. From the text: This inducible activation can be achieved through the delivery of separate lentiviral cassettes for NS3-synTF expression and IL10 production (“double lentiviral vector”), or through the delivery of a single lentiviral cassette expressing the NS3-synTF as well as regulating IL10 production (see e.g., FIG. 15A-15C).
A single lentiviral vector was engineered that was capable of expressing a grazoprevir-inducible synTF that would in turn regulate expression of IL-10. The size of this entire insert including expression elements was 3.5 kB, which is minimal and […] the total payload packaging limits of certain vectors.

The conditions of data set [14]: commonly taken at 100 mg/day for up to 12 weeks; cited from earlier work.
Where [15] appears, read: compared to untreated cell line.

`CC/C(=C(\c1ccc(O)cc1)c1ccc(OCCN(C)C)cc1)c1ccccc1` [4OHT, 4-hydroxytamoxifen]: the “fluorescent protein output on administration of small molecule” value in the data set with ZF-responsive promoter [1] (setting [15]) and in the data set with ZF-responsive promoter [2] was “temporal activation of a fluorescent protein output” each time. For the same compound, in the data set with ZF-responsive promoter [1] (removal after four days), the “fluorescent protein output on removal of small molecule” value (“fluorescent protein output on removal” for short) is recorded as “temporal de-activation of a fluorescent protein output”. For the same compound, the “fluorescent protein output, synTF with repressor effector domain” value (from here on “fluorescent protein output, synTF”) in the data set with ZF-responsive promoter [3] was “temporal silencing of a fluorescent protein output”. In addition, in the data set with ZF-responsive promoter [4] (ERT2-synTF), the IL4 expression result was “expression and secretion of IL4 cytokine”. Further, the “fluorescent protein on administration of 4OHT” value in the data set on ZF-responsive promoter [5] (4 days, all three Jurkat lines) is recorded as “temporal activation of a fluorescent protein”. Moreover, in the data set with ZF-responsive promoter [5] (removal from days 6-16, all cell lines), the “fluorescent protein on removal of 4OHT” value was “temporal deactivation of the fluorescent protein”. Moreover, the “level of fluorescent protein activation” value in the data set with ZF-responsive promoter [6] is given as “maximal activation”. For the same compound, the “fluorescent protein on administration of 4OHT, repressor synTFs” value in the data set with ZF-responsive promoter [7] is listed as “temporal repression of a fluorescent protein”.

`CC1=CC(=O)CC(C)(C)[C@@]1(O)/C=C/C(C)=C\C(=O)O` [ABA, abscisic acid]: the “fluorescent protein output on administration of small molecule” value in the data set with ZF-responsive promoter [8] (setting [15]) and in the data set with ZF-responsive promoter [2] was “temporal activation of a fluorescent protein output” each time. Moreover, in the data set on ZF-responsive promoter [8] (removal after four days), the “fluorescent protein output on removal” value is “temporal de-activation of a fluorescent protein output”. In addition, the “fluorescent protein output, synTF” value with ZF-responsive promoter [3] is reported as “temporal silencing of a fluorescent protein output”.

In the case of `C=C[C@@H]1C[C@]1(NC(=O)[C@@H]1C[C@@H]2CN1C(=O)[C@H](C(C)(C)C)NC(=O)O[C@@H]1C[C@H]1CCCCCc1nc3ccc(OC)cc3nc1O2)C(=O)NS(=O)(=O)C1CC1` [grazoprevir], the “fluorescent protein output on administration of small molecule” value with ZF-responsive promoter [9] (setting [15]) and in the data set with ZF-responsive promoter [2] was “temporal activation of a fluorescent protein output” each time. For the same compound, the “fluorescent protein output on removal” value in the data set on ZF-responsive promoter [9] (removal after four days) was “temporal de-activation of a fluorescent protein output”. The “fluorescent protein output, synTF” value with ZF-responsive promoter [3] and in the data set on ZF-responsive promoter [10] was “temporal silencing of a fluorescent protein output” in each case. For the same compound, in the data set with ZF-responsive promoter [11] (CD4+ primary human T cells, several grazoprevir concentrations over time), the CD19-CAR expression entry is listed as “temporal activation of a fluorescently-tagged chimeric antigen receptor (CD19-CAR) protein; also recorded: dose-dependent expression of synTF”. Besides, the CD19-CAR fold induction result in the data set with ZF-responsive promoter [11] (day 3, highest concentration) was “strong fold induction”. Also, the “T-cell activation, cytokine production (IFNgamma, IL-2)” value in data set [12] is “T-cell activation, measured by enhanced production of cytokines; also recorded: dose-dependent production of IFNgamma and IL-2 cytokines”. Further, the “CD19-CAR expression in dual-drug context” value with ZF-responsive promoter [4] (orthogonal ZF-responsive promoter) is listed as “regulated activation of a fluorescently-tagged chimeric antigen receptor (CD19-CAR) protein”. The IL10 expression entry with ZF-responsive promoter [13] is on record as “temporal activation of a cytokine (IL10); also recorded: strong induced expression of IL-10”. Besides, the “reporter deactivation with SMASh-responsive small molecule” value in the data set with ZF-responsive promoter [5] (grazoprevir for 12 days after 4OHT removal) is “fast deactivation of the reporter to the baseline levels”. In addition, in the data set with ZF-responsive promoter [6], the “level of fluorescent protein activation” value was “little-to-no activation”. Moreover, in [14], the safety profile result is on record as “exceptional safety profile”.
